Legend:
Type in all cases: cell-based, Staphylococcus aureus
12600 MSSA = assay: Effect of duration of antibiotic and phage exposure on MSSA signal (Table 5)
Procedure: Bacterial strains were serially diluted and transferred to a 96-well plate at 135 μL per well. 15 μL of cefoxitin was added to the wells to reach a final concentration of 1.8 μg/mL, 3.6 μg/mL, or 5.4 μg/mL. The plate was then sealed and incubated at 37° C. for 2 hours or 3 hours. 10 μL of recombinant phage (1.6×10^8 pfu/mL) was added to each well. The plate was then re-sealed and incubated at 37° C. for an additional 1 or 2 hours. A master mix was made containing 15 μL 5× lysis buffer, 50 μL luciferase assay buffer, and 1 μL luciferase substrate per well. 65 μL of master mix was added to each well. Luminescence from the reactions was read on a GLOMAX® Navigator and relative luminal units (RLU) for each reaction were plotted and analyzed. RLU values three times greater than an established background RLU level for LB (>750 RLU) were considered positive. The results, shown in Table 5, indicate that the number of MSSA strains producing false-positives at the previously established cut-off of 1.8 μg/mL cefoxitin were reduced with a 3-hour antibiotic/1-hour phage protocol when compared to a 2-hour antibiotic/2-hour phage protocol. A false positive occurred at 541 CFU with the 2-hour antibiotic/2-hour phage protocol. Whereas, the 3-hour antibiotic/1-hour phage protocol produced false positives at 4331 CFU. Positive results are in bold. In Table 5, CFU values (541 CFU and 305 CFU) were experimentally validated by direct plating.

12600 - MSSA = assay: Table 6, MSSA alone
Procedure: Bacterial strains were serially diluted and transferred to a 96-well plate at 135 μL per well. 15 μL of cefoxitin was added to the wells to reach a final concentration of 1.8 μg/mL. The plate was then sealed and incubated at 37° C. for 2 hours or 3 hours. 10 μL of recombinant phage (1.6×10^8 pfu/mL) was added to each well. The plate was then re-sealed and incubated at 37° C. for an additional 1 or 2 hours. A master mix was made containing 15 μL 5× lysis buffer, 50 μL luciferase assay buffer, and 1 μL luciferase substrate per well. 65 μL of master mix was added to each well. Luminescence from the reactions was read on a GLOMAX® Navigator and relative luminal units (RLU) for each reaction were plotted and analyzed. RLU values three times greater than an established background RLU level for LB (>750 RLU) were considered positive. The results, shown in Table 6, indicate that samples with MRSA (38 CFU) can be distinguished from samples containing MSSA (up to 5088 CFU) using a 3-hour antibiotic/1-hour phage incubation protocol. Positive results are in bold. In Table 6, CFU values (318 CFU and 156 CFU) were experimentally validated by direct plating.

MSSA = assay: Recombinant phage luciferase assay, oxacillin vs cefoxitin (Table 1), MSSA strains
Procedure: Bacterial strains were serially diluted to approximately 1×10^3 CFU/mL and transferred to a 96-well plate at 135 μL per well. 15 μL of oxacillin or cefoxitin were added to the wells to reach a final concentration of 1.0 μg/mL or 2.0 μg/mL of oxicillin or 2.0 μg/mL, 4.0 μg/mL, 8.0 μg/mL, or 10.0 μg/mL of cefoxitin. The plate was then sealed and incubated at 37° C. for 2 hours. 10 μL of recombinant phage (1.6×10^8 pfu/mL) was added to each well. The plate was then re-sealed and incubated at 37° C. for 2 hours. A master mix was made containing 15 μL 5× lysis buffer, 50 μL luciferase assay buffer, and 1 μL luciferase substrate per well. 65 μL of master mix was added to each well. Luminescence from the reactions was read on a GLOMAX® Navigator and relative luminal units (RLU) for each reaction were analyzed. RLU values three times greater than an established background RLU level for LB (>750 RLU) were considered positive. The results, shown in Table 1, indicate that the recombinant phage are capable of detecting the tested bacterial strains.

[1] = MSSA detected CFU 10176, MRSA 0
[2] = strain 12600 MSSA, detected CFU 389
[3] = strain AR0484 MSSA, detected CFU 153
[4] = strain AR0488 MSSA, detected CFU 285
[5] = strain AR0491 MSSA, detected CFU 300

## CO[C@@]1(NC(=O)Cc2cccs2)C(=O)N2C(C(=O)O)=C(COC(N)=O)CS[C@@H]21 [Cefoxitin, cefoxitin]
12600 MSSA; detected CFU 305
  Cefoxitin (RLU) - 2 Hour Antibiotic + 2 Hour Phage 1.8 ug/mL: 600 RLU
  Cefoxitin (RLU) - 2 Hour Antibiotic + 2 Hour Phage 3.6 ug/mL: 225 RLU
  Cefoxitin (RLU) - 2 Hour Antibiotic + 2 Hour Phage 5.4 ug/mL: 244 RLU
  Cefoxitin (RLU) - 3 Hour Antibiotic + 1 Hour Phage 1.8 ug/mL: 267 RLU
  Cefoxitin (RLU) - 3 Hour Antibiotic + 1 Hour Phage 3.6 ug/mL: 198 RLU
  Cefoxitin (RLU) - 3 Hour Antibiotic + 1 Hour Phage 5.4 ug/mL: 184 RLU
12600 MSSA; detected CFU 541
  Cefoxitin (RLU) - 2 Hour Antibiotic + 2 Hour Phage 1.8 ug/mL: 1065 RLU
  Cefoxitin (RLU) - 2 Hour Antibiotic + 2 Hour Phage 3.6 ug/mL: 224 RLU
  Cefoxitin (RLU) - 2 Hour Antibiotic + 2 Hour Phage 5.4 ug/mL: 217 RLU
  Cefoxitin (RLU) - 3 Hour Antibiotic + 1 Hour Phage 1.8 ug/mL: 258 RLU
  Cefoxitin (RLU) - 3 Hour Antibiotic + 1 Hour Phage 3.6 ug/mL: 215 RLU
  Cefoxitin (RLU) - 3 Hour Antibiotic + 1 Hour Phage 5.4 ug/mL: 171 RLU
12600 MSSA; detected CFU 1083
  Cefoxitin (RLU) - 2 Hour Antibiotic + 2 Hour Phage 1.8 ug/mL: 1718 RLU
  Cefoxitin (RLU) - 2 Hour Antibiotic + 2 Hour Phage 3.6 ug/mL: 395 RLU
  Cefoxitin (RLU) - 2 Hour Antibiotic + 2 Hour Phage 5.4 ug/mL: 277 RLU
  Cefoxitin (RLU) - 3 Hour Antibiotic + 1 Hour Phage 1.8 ug/mL: 415 RLU
  Cefoxitin (RLU) - 3 Hour Antibiotic + 1 Hour Phage 3.6 ug/mL: 201 RLU
  Cefoxitin (RLU) - 3 Hour Antibiotic + 1 Hour Phage 5.4 ug/mL: 208 RLU
12600 MSSA; detected CFU 2165
  Cefoxitin (RLU) - 2 Hour Antibiotic + 2 Hour Phage 1.8 ug/mL: 3046 RLU
  Cefoxitin (RLU) - 2 Hour Antibiotic + 2 Hour Phage 3.6 ug/mL: 424 RLU
  Cefoxitin (RLU) - 2 Hour Antibiotic + 2 Hour Phage 5.4 ug/mL: 331 RLU
  Cefoxitin (RLU) - 3 Hour Antibiotic + 1 Hour Phage 1.8 ug/mL: 604 RLU
  Cefoxitin (RLU) - 3 Hour Antibiotic + 1 Hour Phage 3.6 ug/mL: 218 RLU
  Cefoxitin (RLU) - 3 Hour Antibiotic + 1 Hour Phage 5.4 ug/mL: 202 RLU
12600 MSSA; detected CFU 4331
  Cefoxitin (RLU) - 2 Hour Antibiotic + 2 Hour Phage 1.8 ug/mL: 5703 RLU
  Cefoxitin (RLU) - 2 Hour Antibiotic + 2 Hour Phage 3.6 ug/mL: 563 RLU
  Cefoxitin (RLU) - 2 Hour Antibiotic + 2 Hour Phage 5.4 ug/mL: 487 RLU
  Cefoxitin (RLU) - 3 Hour Antibiotic + 1 Hour Phage 1.8 ug/mL: 933 RLU
  Cefoxitin (RLU) - 3 Hour Antibiotic + 1 Hour Phage 3.6 ug/mL: 196 RLU
  Cefoxitin (RLU) - 3 Hour Antibiotic + 1 Hour Phage 5.4 ug/mL: 194 RLU
12600 MSSA; detected CFU 8662
  Cefoxitin (RLU) - 2 Hour Antibiotic + 2 Hour Phage 1.8 ug/mL: 11570 RLU
  Cefoxitin (RLU) - 2 Hour Antibiotic + 2 Hour Phage 3.6 ug/mL: 1224 RLU
  Cefoxitin (RLU) - 2 Hour Antibiotic + 2 Hour Phage 5.4 ug/mL: 979 RLU
  Cefoxitin (RLU) - 3 Hour Antibiotic + 1 Hour Phage 1.8 ug/mL: 1563 RLU
  Cefoxitin (RLU) - 3 Hour Antibiotic + 1 Hour Phage 3.6 ug/mL: 247 RLU
  Cefoxitin (RLU) - 3 Hour Antibiotic + 1 Hour Phage 5.4 ug/mL: 224 RLU
12600 MSSA; detected CFU 17323
  Cefoxitin (RLU) - 2 Hour Antibiotic + 2 Hour Phage 1.8 ug/mL: 22890 RLU
  Cefoxitin (RLU) - 2 Hour Antibiotic + 2 Hour Phage 3.6 ug/mL: 2071 RLU
  Cefoxitin (RLU) - 2 Hour Antibiotic + 2 Hour Phage 5.4 ug/mL: 1493 RLU
  Cefoxitin (RLU) - 3 Hour Antibiotic + 1 Hour Phage 1.8 ug/mL: 2695 RLU
  Cefoxitin (RLU) - 3 Hour Antibiotic + 1 Hour Phage 3.6 ug/mL: 255 RLU
  Cefoxitin (RLU) - 3 Hour Antibiotic + 1 Hour Phage 5.4 ug/mL: 246 RLU
12600 - MSSA; MSSA detected CFU 156, MRSA 0
  2 HR AB + 2 HR Phage 1.8 ug/mL: 423 RLU
  3 HR AB + 1 HR Phage 1.8 ug/mL: 196 RLU
12600 - MSSA; MSSA detected CFU 318, MRSA 0
  2 HR AB + 2 HR Phage 1.8 ug/mL: 608 RLU
  3 HR AB + 1 HR Phage 1.8 ug/mL: 231 RLU
12600 - MSSA; MSSA detected CFU 636, MRSA 0
  2 HR AB + 2 HR Phage 1.8 ug/mL: 956 RLU
  3 HR AB + 1 HR Phage 1.8 ug/mL: 275 RLU
12600 - MSSA; MSSA detected CFU 1272, MRSA 0
  2 HR AB + 2 HR Phage 1.8 ug/mL: 1685 RLU
  3 HR AB + 1 HR Phage 1.8 ug/mL: 321 RLU
12600 - MSSA; MSSA detected CFU 2544, MRSA 0
  2 HR AB + 2 HR Phage 1.8 ug/mL: 4715 RLU
  3 HR AB + 1 HR Phage 1.8 ug/mL: 621 RLU
12600 - MSSA; MSSA detected CFU 5088, MRSA 0
  2 HR AB + 2 HR Phage 1.8 ug/mL: 8583 RLU
  3 HR AB + 1 HR Phage 1.8 ug/mL: 901 RLU
12600 - MSSA; [1]
  2 HR AB + 2 HR Phage 1.8 ug/mL: 16340 RLU
  3 HR AB + 1 HR Phage 1.8 ug/mL: 1098 RLU
MSSA; 2 ug/mL
  detection after incubation with cefoxitin: selective loss of MSSA detection
  susceptibility of MSSA strains: susceptible
MSSA; [2]
  Cefoxitin (RLU) 2 ug/mL: 797 RLU
  Cefoxitin (RLU) 4 ug/mL: 475 RLU
  Cefoxitin (RLU) 8 ug/mL: 332 RLU
  Cefoxitin (RLU) 10 ug/mL: 277 RLU
MSSA; [3]
  Cefoxitin (RLU) 2 ug/mL: 227 RLU
  Cefoxitin (RLU) 4 ug/mL: 195 RLU
  Cefoxitin (RLU) 8 ug/mL: 197 RLU
  Cefoxitin (RLU) 10 ug/mL: 204 RLU
MSSA; [4]
  Cefoxitin (RLU) 2 ug/mL: 254 RLU
  Cefoxitin (RLU) 4 ug/mL: 220 RLU
  Cefoxitin (RLU) 8 ug/mL: 213 RLU
  Cefoxitin (RLU) 10 ug/mL: 229 RLU
MSSA; [5]
  Cefoxitin (RLU) 2 ug/mL: 207 RLU
  Cefoxitin (RLU) 4 ug/mL: 234 RLU
  Cefoxitin (RLU) 8 ug/mL: 187 RLU
  Cefoxitin (RLU) 10 ug/mL: 191 RLU
